Values after ≈ are worked out from the molar mass of the structure shown.

Holding throughout (type): functional
The subject of test [1] is Staphylococcus aureus. The experiment in a line: Antibacterial activity against Staphylococcus aureus after 3 to 7 days by cup diffusion method.
Test [2] concerns Bacillus subtilis. The test can be described thus: Antibacterial activity against Bacillus subtilis after 3 to 7 days by cup diffusion method.
Test [3] has as its system Escherichia coli. The experiment in a line: Antibacterial activity against Escherichia coli after 3 to 7 days by cup diffusion method.
Test [4] relates to Pseudomonas aeruginosa. The experiment in a line: Antibacterial activity against Pseudomonas aeruginosa after 3 to 7 days by cup diffusion method.
The subject of test [5] is Mycolicibacterium phlei. The experiment in a line: Antibacterial activity against Mycobacterium phlei clinical isolate after 3 to 7 days by cup diffusion method.
Test [6] concerns Aggregatibacter actinomycetemcomitans. The experiment in a line: Antibacterial activity against Aggregatibacter actinomycetemcomitans ATCC 29524 after 3 to 7 days by cup diffusion method.
The test system of test [7] is Staphylococcus aureus. The test can be described thus: Antibacterial activity against Staphylococcus aureus assessed as zone of inhibition at 10 mg/ml after 3 to 7 days by cup diffusion method. To be noted: read-out: IZ.
Test [8] relates to Bacillus subtilis. The experiment in a line: Antibacterial activity against Bacillus subtilis assessed as zone of inhibition at 10 mg/ml after 3 to 7 days by cup diffusion method. Particulars: read-out: IZ.
Test [9] has as its system Escherichia coli. The experiment in a line: Antibacterial activity against Escherichia coli assessed as zone of inhibition at 10 mg/ml after 3 to 7 days by cup diffusion method. Particulars: read-out: IZ.
Test [10] concerns Pseudomonas aeruginosa. The experiment in a line: Antibacterial activity against Pseudomonas aeruginosa assessed as zone of inhibition at 10 mg/ml after 3 to 7 days by cup diffusion method. To be noted: read-out: IZ.
In test [11] the test system is Mycolicibacterium phlei. The experiment in a line: Antibacterial activity against Mycobacterium phlei clinical isolate assessed as zone of inhibition at 10 mg/ml after 3 to 7 days by cup diffusion method. To be noted: read-out: IZ.
The subject of test [12] is Aggregatibacter actinomycetemcomitans. The experiment in a line: Antibacterial activity against Aggregatibacter actinomycetemcomitans ATCC 29524 assessed as zone of inhibition at 10 mg/ml after 3 to 7 days by cup diffusion method. To be noted: read-out: IZ.
Test [13] deals with Escherichia coli. The test can be described thus: Antibacterial activity against Escherichia coli.
The test system of test [14] is Staphylococcus aureus. The experiment in a line: Antibacterial activity against Staphylococcus aureus.
The mark [15] stands for this setting: Staphylococcus aureus, read-out: MIC.
Setting [16] is: Bacillus subtilis, read-out: MIC.
[17] abbreviates: Escherichia coli, read-out: MIC.
Setting [18] is: Pseudomonas aeruginosa, read-out: MIC.
Where [19] appears, read: Mycolicibacterium phlei, read-out: MIC.
[20] abbreviates: Aggregatibacter actinomycetemcomitans, ATCC 29524, read-out: MIC.

Consider `CCn1cc(-c2nc(/N=C/c3ccc(Br)cc3)n[nH]2)c(=O)c2cc(Br)c(C)nc21`, for which the MIC in test [1] (setting [15]), in [2] (setting [16]), in [3] (setting [17]), in [4] (setting [18]), in test [5] (setting [19]) and in test [6] (setting [20]) was 3.68 to 6.3 µM (≈ 1.9 to 3.25 µg/mL) each time. In addition, the zone of inhibition at 10000 µg/mL in test [7], in test [8], in test [9], in test [10], in test [11] and in test [12] was 20 to 40 mm each time.
As to `CCn1cc(-c2nc(/N=C/c3ccccc3O)n[nH]2)c(=O)c2ccc(C)nc21`, the MIC entry in [2], in test [3], in test [4], in test [5] and in test [6] was “>=0.031 - 32 ug ml-1” throughout. For the same molecule, the zone of inhibition at 10000 µg/mL in test [7], in [8], in test [9], in [10], in test [11] and in [12] was 20 to 40 mm each time.
`O=C(O)c1cn(C2CC2)c2c(cc(F)c3nn(CN4CCCCC4)c(=S)n32)c1=O`: the MIC in test [13] and in test [14] was 0.125 to 8 µg/mL (≈ 0.299 to 19.2 µM) each time.
On to `CCn1cc(-c2nc(/N=C/c3ccccc3)n[nH]2)c(=O)c2cc(Br)c(C)nc21`, for which the MIC in [1] (setting [15]), in test [2] (setting [16]), in test [3] (setting [17]), in [4] (setting [18]), in [5] (setting [19]) and in [6] (setting [20]) was 3.68 to 6.3 µM (≈ 1.61 to 2.75 µg/mL) throughout. Besides, the zone of inhibition at 10000 µg/mL in test [7], in test [8], in test [9], in [10], in test [11] and in test [12] was 20 to 40 mm each time.
Consider `CCn1cc(-c2nc(/N=C/c3ccc(Cl)cc3Cl)n[nH]2)c(=O)c2cc(Br)c(C)nc21`, for which the MIC in test [1] (setting [15]), in [2] (setting [16]), in [3] (setting [17]), in test [4] (setting [18]), in [5] (setting [19]) and in test [6] (setting [20]) was 3.68 to 6.3 µM (≈ 1.86 to 3.19 µg/mL) each time. Besides, the zone of inhibition at 10000 µg/mL in test [7], in test [8], in test [9], in test [10], in test [11] and in test [12] was 20 to 40 mm throughout.
On to `O=C(O)c1cn(C2CC2)c2c(cc(F)c3nn(CN4CCOCC4)c(=S)n32)c1=O`, for which the MIC in test [13] and in test [14] was 0.125 to 8 µg/mL (≈ 0.298 to 19.1 µM) each time.
In the case of `CCn1cc(-c2nc(NC(=O)c3ccc(F)cc3)n[nH]2)c(=O)c2ccc(C)nc21`, the MIC result in test [1], in test [2], in test [3], in test [4], in test [5] and in test [6] was “>=0.031 - 32 ug ml-1” each time. Besides, the zone of inhibition at 10000 µg/mL in test [7], in [8], in [9], in test [10], in test [11] and in test [12] was 20 to 40 mm each time.
With `CCn1cc(-c2nc(/N=C/c3ccc(F)cc3)n[nH]2)c(=O)c2cc(Br)c(C)nc21`, the MIC in [1] (setting [15]), in test [2] (setting [16]), in test [3] (setting [17]), in test [4] (setting [18]), in [5] (setting [19]) and in test [6] (setting [20]) was 3.68 to 6.3 µM (≈ 1.68 to 2.87 µg/mL) in each case. For the same molecule, the zone of inhibition at 10000 µg/mL in test [7], in test [8], in test [9], in test [10], in test [11] and in test [12] was 20 to 40 mm throughout.
As for `CCn1cc(-c2nc(/N=C/c3ccc(Cl)cc3)n[nH]2)c(=O)c2cc(Br)c(C)nc21`, the MIC in [1] (setting [15]), in [2] (setting [16]), in test [3] (setting [17]), in test [4] (setting [18]), in test [5] (setting [19]) and in test [6] (setting [20]) was 3.68 to 6.3 µM (≈ 1.74 to 2.97 µg/mL) in each case. The zone of inhibition at 10000 µg/mL in [7], in [8], in test [9], in test [10], in test [11] and in test [12] was 20 to 40 mm in each case.
Consider `CCn1cc(-c2nc(NC(=O)c3ccc(OC)cc3)n[nH]2)c(=O)c2cc(Br)c(C)nc21`, for which the MIC in test [1] (setting [15]), in test [2] (setting [16]), in test [3] (setting [17]), in test [4] (setting [18]), in test [5] (setting [19]) and in test [6] (setting [20]) was 3.68 to 6.3 µM (≈ 1.78 to 3.04 µg/mL) throughout. The zone of inhibition at 10000 µg/mL in test [7], in [8], in test [9], in [10], in test [11] and in test [12] was 20 to 40 mm each time.
As to `CCn1cc(-c2nc(NC(=O)CCl)n[nH]2)c(=O)c2ccc(C)nc21`, the MIC entry in test [1], in test [2], in [3], in test [4], in test [5] and in test [6] was “>=0.031 - 32 ug ml-1” throughout. In addition, the zone of inhibition at 10000 µg/mL in [7], in test [8], in test [9], in test [10], in test [11] and in [12] was 20 to 40 mm in each case.
Consider `CCn1cc(-c2nc(NC(=O)c3ccc(Cl)cc3)n[nH]2)c(=O)c2cc(Br)c(C)nc21`, for which the MIC in [1] (setting [15]), in [2] (setting [16]), in [3] (setting [17]), in test [4] (setting [18]), in test [5] (setting [19]) and in test [6] (setting [20]) was 3.68 to 6.3 µM (≈ 1.79 to 3.07 µg/mL) throughout. For the same molecule, the zone of inhibition at 10000 µg/mL in [7], in test [8], in [9], in [10], in [11] and in test [12] was 20 to 40 mm each time.
On to `CCn1cc(-c2nc(NC(=O)c3ccc(OC)cc3)n[nH]2)c(=O)c2ccc(C)nc21`, for which the MIC entry in test [1], in test [2], in [3], in test [4], in test [5] and in [6] was “>=0.031 - 32 ug ml-1” throughout. For the same molecule, the zone of inhibition at 10000 µg/mL in test [7], in [8], in test [9], in test [10], in test [11] and in [12] was 20 to 40 mm each time.
In the case of `CN(C)Cn1nc2c(F)cc3c(=O)c(C(=O)O)cn(C4CC4)c3n2c1=S`, the MIC in test [13] and in [14] was 4 to 32 µg/mL (≈ 10.6 to 84.8 µM) each time.
In the case of `CCn1cc(-c2nc(/N=C/c3ccc(Cl)cc3Cl)n[nH]2)c(=O)c2ccc(C)nc21`, the MIC entry in [1], in [2], in [3], in [4], in test [5] and in test [6] was “>=0.031 - 32 ug ml-1” in each case. The zone of inhibition at 10000 µg/mL in [7], in [8], in [9], in test [10], in [11] and in test [12] was 20 to 40 mm each time.
Turning to `CN1CCN(Cn2nc3c(F)cc4c(=O)c(C(=O)O)cn(C5CC5)c4n3c2=S)CC1`, the MIC in test [13] and in [14] was 0.125 to 8 µg/mL (≈ 0.289 to 18.5 µM) in each case.
Take `CCN1CCN(Cn2nc3c(F)cc4c(=O)c(C(=O)O)cn(C5CC5)c4n3c2=S)CC1`: the MIC in test [13] and in test [14] was 0.125 to 8 µg/mL (≈ 0.28 to 17.9 µM) in each case.
Take `O=C(O)c1cn(C2CC2)c2c(cc(F)c3nn(CN4CCCC4)c(=S)n32)c1=O`: the MIC in test [13] and in [14] was 0.125 to 8 µg/mL (≈ 0.31 to 19.8 µM) each time.
Consider `CCN(CC)Cn1nc2c(F)cc3c(=O)c(C(=O)O)cn(C4CC4)c3n2c1=S`, for which the MIC in test [13] and in test [14] was 4 to 32 µg/mL (≈ 9.87 to 78.9 µM) in each case.
As for `CC1CNCCN1Cn1nc2c(F)cc3c(=O)c(C(=O)O)cn(C4CC4)c3n2c1=S` (centres undefined), the MIC in [13] and in [14] was 0.125 to 0.5 µg/mL (≈ 0.289 to 1.16 µM) each time.

(Values after ChEMBL document CHEMBL4346717, “1,2,4-Triazole-quinoline/quinolone hybrids as potential anti-bacterial agents” (Eur J Med Chem, 2019).)
